From patent US6602914B2, “Compounds and methods for the inhibition of the expression of VCAM-1” (AtheroGenics, Inc., priority 1997, dated 2003) come the findings set out here.

One test relates to ApoB/HepG2. The test is described as follows: Lipid Screen & IC50 Determination Protocol: ApoB ELISA of HEPG2 media. In kind it is cell-based, human. The note with it: HEPG2, 24 hours; for IC50: bare number = IC50, NE not defined in the patent, read-out: ApoB/HepG2 IC50 or % inhibition at [μM]: IC50; for ApoB/HepG2 % inhibition at [μM]: at 15 μM. Here is the method:
HEPG2 cell was started in 10 ml of MEM, 10% FBS, 1 mM Sodium Pyruvate. The cells were incubated in a tissue culture incubator. The cells were split into 4×96-wells plate in MEM, 10% FBS, 1 mM Sodium Pyruvate and allowed to grow to about 50% confluency and then removed.
The cells were treated with the desired concentration of compounds in 100 μl DMEM, 1% RSA for 24 hours. The compounds are dissolved in DMSO.
On the same day, 4×96-wells NuncImmunoSorb plate is coated with 100 μl of mouse anti-human ApoB monoclonal 1D1 (1:1000 dilution in 1×PBS, pH 7.4). The coating is allowed overnight.
The coated plate is washed 3 times with 1×PBS, pH 7.4, −0.05% Tween 20. 100 μl of the standards is added to the selected wells. ApoB standards are prepared at 6.25, 3.12, 1.56, 0.78, 0.39 ng, and each concentration is done in triplicates. For samples:
90 μl of 1×PBS, pH 7.4, −0.05% Tween 20 is added to each well corresponding to the sample. 10 μl of media is transferred from the treated HEPG2 plates to the ApoB ELISA plate. The plate is incubated at room temperature for 2 hours, rocking gently.
Wash the coated plate 3× with 1×PBS, pH 7.4, −0.05% Tween 20. Add 100 μl of sheep anti-human ApoB polyclonal from Boehringer Mannheim. (1:2000 dilution in 1×PBS, pH 7.4, −0.05% Tween 20) from Boehringer Mannheim. Incubate at room temperature for 1 hour, rocking gently. Wash the coated plate 3× with 1×PBS, pH 7.4, −0.05% Tween 20. Add 100 μl of rabbit anti-sheep IgG (1:2000 dilution in 1×PBS, pH 7.4, −0.05% Tween 20). Incubate at room temperature for 1 hour, rocking gently. Wash the coated plate 3× with 1×PBS, pH 7.4, −0.05% Tween 20. Add 100 μl of substrate (10 ml of distilled water, 100 μl of TMB (10 mg/ml), and 1 μl of hydrogen peroxide). Allow color to emerge and stop reaction with 25 ul of 8N sulfuric acid. Wells are read with MicroPlate Reader @ […]. Graph accumulation of ApoB in media as a percentage of control for each sample and their concentration. A determination of IC50 is obtained from the graph.
The degree of inhibition of the compounds of formulas (I) and (II) was determined by the assays described in Examples 62-64.

For another test, the system named is VCAM-1. The test is described as follows: VCAM-1 Assay: TNF-stimulated cells, cell-surface ELISA. It counts as cell-based. Conditions: for IC50: bare number = IC50, NE not defined in the patent, read-out: VCAM-1 IC50 or % inhibition at [μM]: IC50; for VCAM-1 % inhibition at [μM]: at 50 μM. The protocol: Two to four confluent P150 plates are trypsinized and the cells transferred to a 50 mL conical centrifuge tube. The cells are pelleted, resuspended, and counted using the trypan blue exclusion method.
Cells are resuspended at a concentration of 36,000 cells/mL and 1 mL is aliquoted per well.
Cells are split into 24 well tissue culture plates. The cells in each well should be approximately 90-95% confluent by the following day. Cells should not be older than passage 8.
Compounds are initially screened at 50 μM and 10 μM. A 50 mM stock solution for each compound is prepared in culture medium. The stock solution is diluted to 5 mM and 1 mM. When 10 μL of the 5 mM solution is added to the well (1 mL medium/well), the final concentration will be 50 μM. Adding 10 μL of the 1 mM solution to the well will give a final concentration of 10 μM.
Compounds which will not go into solution in culture medium are resuspended in DMSO at a concentration of 25 mM. The stock solution is then diluted to the final concentration in culture medium. The old medium is aspirated and 1 mL of the new medium with the compound is added. For example, if the final concentration is 50 μM, the 2 μL of the 25 mM stock is added per mL of culture medium. The […] solution is diluted for lower concentrations.
The compounds are added to the plate (each compound is done in duplicate). One plate is done for VCAM expression and one plate is done for ICAM expression.
Immediately after the compounds are added, TNF is added to each well. 100 units/mL TNF is usually added to each well. Since each lot of TNF varies in the number of units, each new lot is titrated to determine the optimum concentration. Therefore this concentration will change. If 100 units/mL is bing used, dilute the TNF to 10 units/μL and add 10 μL to each well.
The plates are incubated at 37° C., 5% CO2 overnight (approximately 16 hours). The next day the plates are checked under the microscope to see if there are any visual signs of toxicity. Records are made of any cell death, debris, or morphology changes, as well as insoluble compounds (particulate or turbity).
In order to assess MCP-1, the media (500 μL) is saved and frozen at −70° C. Wash cells once with roughly 1 ml/well of Hanks Balance Salt Solution (HBSS) or PBS. Gently empty the wash solution and then tap the plate onto paper towels. Add either 250 μL/well of HBSS +5% FCCS to the plank (no primary antibody wells) or 250 μL/well of primary antibody diluted in HBSS +5% FCS. Incubate for 30 minutes at 37° C. Wash the wells twice with 0.5 mL/well HBSS or PBS and gently tap the plates onto paper towels after the last wash. Add 250 μL/well of HRP-conjugated second antibody diluted in HBSS +5% FCS to every well including the blank wells (no primary antibody). Incubate at 37° C. for 30 minutes. Wash the wells four times with 0.5 mL/well HBSS or PBS and gently tap the plates onto paper towels after the last wash. Add 250 μL/well of substrate solution. Incubate at room temperature in the dark until there is adequate color development (blue). Note the length of time incubation was performed (typically 15-30 minutes). Add 75 μL/well stopper solution (8N sulfuric acid), and read A450 nm.

As for `CC(C)(C)c1cc(S(=O)(=O)Cc2ccc([N+](=O)[O-])cc2)cc(C(C)(C)C)c1O` [2,6-di-tert-butyl4-(sulfonyl-(4′-nitrobenzyl))phenol], the IC50 in the test on ApoB/HepG2 came out at 25 µM; in the test with VCAM-1 it was 40 µM. For `CC(C)(C)c1cc(SCc2ccc([N+](=O)[O-])cc2[N+](=O)[O-])cc(C(C)(C)C)c1O` [2,6-di-tert-butyl4-thio(2′,4′-dinitrobenzyl)phenol], in that order: 32 µM and 8 µM.

As to `CC(C)(C)c1cc(SCc2ccc([N+](=O)[O-])cc2)cc(C(C)(C)C)c1O` [2,6-di-tert-butyl4-thio(4′-nitrobenzyl)phenol], the values for the IC50 with ApoB/HepG2 and in the test with VCAM-1 were 27 µM and 10 µM, respectively. As to `CN(C)CCCSc1cc(C(C)(C)C)c(O)c(C(C)(C)C)c1` [2,6-di-tert-butyl-4-thio(3′-(dimethylamino)propyl))phenol], in the test with VCAM-1, the “VCAM-1 % inhibition at [μM]” value turned out to be 30% at 50. In the case of `CC(C)(C)c1cc(SCc2cccc([N+](=O)[O-])c2)cc(C(C)(C)C)c1O` [2,6-di-tert-butyl-4-thio(3′-nitrobenzyl)phenol], the IC50 worked out at 20 µM with ApoB/HepG2 and 13 µM in the test with VCAM-1. As to `CC(C)(C)c1cc(SCCCS(=O)(=O)O)cc(C(C)(C)C)c1O` [2,6-di-tert-butyl-4-thio(3′-propanesulfonic acid)phenol], in the test with VCAM-1, the “VCAM-1 % inhibition at [μM]” value was found to be 25% at 50.

Consider `CC(C)(C)c1cc(SCc2ccc(CC(=O)O)cc2)cc(C(C)(C)C)c1O` [2,6-di-tert-butyl-4-thio(4′(methyl)phenylacetic acid))phenol], for which, in the test on ApoB/HepG2, the “ApoB/HepG2 % inhibition at [μM]” value was 7% at 15. Also, the IC50 with VCAM-1 was determined as 80 µM. With `CC(C)(C)c1cc(SCc2ccc(CCO)cc2)cc(C(C)(C)C)c1O` [2,6-di-tert-butyl-4-thio(4′-(methyl)phenylethyl alcohol))phenol], the “ApoB/HepG2 % inhibition at [μM]” value in the test on ApoB/HepG2 was 53% at 15. The IC50 in the test on VCAM-1 turned out to be 15 µM.

Consider `CC(=O)Oc1ccc(CSc2cc(C(C)(C)C)c(O)c(C(C)(C)C)c2)cc1` [2,6-di-tert-butyl-4-thio(4′-acetoxybenzyl)phenol], for which the IC50 in the test with ApoB/HepG2 is 40 µM; with VCAM-1 it was 18 µM. Taken in the same sequence, the figures for `CC(C)(C)c1cc(SCc2ccc(F)cc2)cc(C(C)(C)C)c1O` [2,6-di-tert-butyl-4-thio(4′-fluorobenzyl)phenol] were 30 µM and 35 µM.

In the case of `CN(C)S(=O)(=O)c1ccc(CSc2cc(C(C)(C)C)c(O)c(C(C)(C)C)c2)cc1` [2,6-di-tert-butyl-4-thio(4′-methyl-N,N-dimethylbenzenesulfonamide)phenol], the IC50 with ApoB/HepG2 stood at 31 µM; with VCAM-1, 20 µM. For `Cc1ccc(CSc2cc(C(C)(C)C)c(O)c(C(C)(C)C)c2)cc1` [2,6-di-tert-butyl-4-thio(4′-methylbenzyl)phenol], in that order: 22 µM and 75 µM.

On to `CC(C)(C)c1cc(SCCc2ccc([N+](=O)[O-])cc2)cc(C(C)(C)C)c1O` [2,6-di-tert-butyl-4-thio(4′-nitrophenethyl)phenol], for which the IC50 with VCAM-1 is 15 µM. In the case of `CN(C)Cc1ccc(CSc2cc(C(C)(C)C)c(O)c(C(C)(C)C)c2)o1` [2,6-di-tert-butyl-4-thio(5′-methyl-2′-((dimethylamino)methyl)furan)phenol], the IC50 worked out at 19 µM with ApoB/HepG2 and 10 µM in the test on VCAM-1. Turning to `CC(C)(C)c1cc(SCCCC(=O)O)cc(C(C)(C)C)c1O` [2,6-di-tert-butyl-4-thio(butanoic acid)phenol], the IC50 in the test with VCAM-1 was 75 µM. Same read-out and setting: to `CC(C)(C)c1cc(SCc2ccc(C(=O)O)o2)cc(C(C)(C)C)c1O` [2,6-di-tert-butyn4-thio((2′-furancarboxylic acid)-5-methyl)phenol] belongs 40 µM. As to `CC(C)(C)c1cc(SCc2ccc(C(F)(F)F)cc2)cc(C(C)(C)C)c1O` [(2,6-di-tert-butyl4-thio(4′-(trifluoromethyl)benzyl)phenol], the IC50 came to 16 µM in the test with ApoB/HepG2 and 5 µM in the test on VCAM-1. In the case of `CC(C)(Sc1cc(C(C)(C)C)c(O)c(C(C)(C)C)c1)Sc1cc(C(C)(C)C)c(OC(=O)CCC(=O)O)c(C(C)(C)C)c1` [Butanedioic acid, mono [4-[[1-[[3,5-bis(1,1-dimethylethyl)-4-hydroxyphenyl]thio]-1-methylethyl]thio]2,6-bis(1,1-dimethylethyl)phenyl]ester], in the test on ApoB/HepG2, the “ApoB/HepG2 % inhibition at [μM]” value is 65% at 15. Further, the IC50 in the test on VCAM-1 was 5.6 µM.

`CC(C)(Sc1cc(C(C)(C)C)c(O)c(C(C)(C)C)c1)Sc1cc(C(C)(C)C)c(OCC2OC2CO)c(C(C)(C)C)c1` (centres unmarked) [Oxiranemethanol, 3-[[4-[[1-[[3,5-bis(1,1-dimethylethyl)-4-hydroxyphenyl]thio]-1-methylethyl]thio]-2,6-bis(1,1-dimethylethyl)phenoxy]methyl]-]: the IC50 with VCAM-1 was over 100 µM. Same read-out and setting: to `CC(C)(Sc1cc(C(C)(C)C)c(O)c(C(C)(C)C)c1)Sc1cc(C(C)(C)C)c(OCC(O)C2CO2)c(C(C)(C)C)c1` (stereo not drawn) [Oxiranemethanol, α-[[4-[[1-[[3,5-bis(1,1-dimethylethyl)-4-hydroxyphenyl]thio]-1-methylethyl]thio]-2,6-bis(1,1-dimethylethyl)phenoxy]methyl]-] belongs 45 µM; to `CC1(C)OC2OC(COc3c(C(C)(C)C)cc(SC(C)(C)Sc4cc(C(C)(C)C)c(O)c(C(C)(C)C)c4)cc3C(C)(C)C)C3OC(C)(C)OC3C2O1` [α-D-Galactopyranose, 60-[4-[[1-[[3,5-bis(1,1-dimethylethyl)-4-hydroxyphenyl]thio]-1-methylethyl]thio]-2,6-bis(1,1-dimethylethyl)phenyl]-1,2:3,4-bis-O-(1-methylethylidene)], 45 µM. In the case of “Oxiranemethanol, α-[[[3-[[4-[[1-[[3,5-bis(1,1-dimethylethyl)-4-hydroxyphenyl]thio]-1-methylethyl]thio]-2,6-bis(1,1-dimethylethyl)phenoxy]methyl]oxiranyl]methoxy]methyl]-”, the IC50 in the test on VCAM-1 was 60 µM.
